Source: paper PMC10275055, “Preventing recurrence in Sonic Hedgehog Subgroup Medulloblastoma using the OLIG2 inhibitor CT-179” (Research Square, 2023)
Where two headings read alike, the source gives them in different places.

Tests used:
R403 and R902 MBOs = experiment: MB explant organoids (MBOs), cleaved caspase-3 staining; assay type: cell-based, human; details: 1 μM, 48 hours, CT-179 alone
From the text: MB cell lines Daoy, UW228, and D283 were obtained from the American Type Culture Collection (ATCC) and cultured in RPMI supplemented with 1% Penicillin-Streptomycin, 1% GlutaMax-I CTS (Gibco) and 10% fetal bovine serum (FBS) (Gibco). MB002, D425 and PER547 primary cell lines were kindly provided by Dr. Tobias Schoep (Telethon Kids Institute, WA). Med-2312 PDX, Neo-113 PDX, Med-2112 PDX, Med-113 PDX and Med-813 PDX were filter tissues purchased from the Olson Laboratory (https://research.fhcrc.org/olson/en/btrl.html). Cell lines derived from the corresponding PDX tissues were labelled as primary cell lines. MB-R201 PDX is a MB PDX model generated and established in our laboratory. MB-R203 is a primary MB cell line. Primary cell lines were derived from MB patient specimens and cultured either in serum-free media grown as spheres or on matrigel. The serum-free media was prepared as previously described. Fresh surgically resected MB tissues were obtained from Queensland Children’s Tumor Bank. MB explant organoids (MBOs), R403 and R901, were generated by microdissection under a stereomicroscope (Zeiss) within a laminar flow biosafety cabinet. The MBOs were cultured in glioblastoma organoid (GBO) medium modified based on Jacob et al.. All cell lines were incubated at 37 °C under 5% CO2/95% humidified air atmosphere. […]

[1] = tested on: OLIG2-driven transcription (human LHX8 promoter); experiment: LHX8 promoter luciferase reporter assay in Daoy cells; assay type: cell-based; details: OLIG2 overexpression, 250 nM, 24 hours
From the text: Promoter region of human LHX8 was amplified by PCR from human genomic DNA extracted from Med-813luci cells with primers shown in STAR METHODS. The promoter region was inserted into the pGL3-Basic luciferase-reporter vector (Promega). Flag-OLIG2 were synthesised as a gBlock flanked by the Nhel and BamHI restriction enzyme sites (Integrated DNA Technologies, Singapore). The gBlock was restriction digested and ligated into the expression vector, pLEX_307 (a gift from Joseph Rosenbluh, Monash University, Australia) to form pLX307/FLAG-OLIG2. Firefly luciferase-reporter construct (300 ng, pGL3-Basic or pGL3-LHX8), pRL Renilla luciferase SV40 Control Reporter Vector (Promega, 50 ng), and pLX307/Flag-OLIG2 (300 ng) or pLX307/empty vector (300 ng) were reverse co-transfected with Daoy cells (1 × 10^5/well) in 24-well plates using Lipofectamine™ 3000 (Invitrogen). CT-179 (250 nM) was added and incubated for 24 hours. The luciferase activity was examined using Dual-Glo® Luciferase Assay System (Promega) according to the manufacturer’s instructions, and the signal was normalised to vector controls.

[2] = In vivo pharmacokinetic studies of CT-179 in mice, plasma and brain; set-up: species or system mice (C57Bl/J6); details: mouse; for bioavailability: in vivo, po, PO 20 mg/kg vs IV 1 mg/kg
Experimental: The in vivo pharmacokinetic studies (EXT-240 and EXT-241) were performed under contract by Biodura Inc.

## Cc1cc(NCCCN(C)C)nc(NC(=O)Nc2ccc(Cl)c(Cl)c2)n1 [CT-179]
R403 and R902 MBOs
  cell death, cleaved caspase-3 staining: significant cell death
[1]
  luciferase expression (LHX8 promoter reporter): significantly decreased
[2]; brain, 4 hours after single PO dose, 20 mg/kg, read-out: brain to plasma (B/P) ratio, average
  Kp at 4 h: 6.72
[2]; brain, second study, PO doses of 1 and 5 mg/Kg once daily, read-out: estimated brain to plasma ratio
  Kp: > 10
[2]; 20 mg/kg, read-out: bioavailability, mean
  bioavailability: 75%
[2]; 20 mg/kg, read-out: bioavailability, range estimated
  bioavailability: 58 to 91%
